Reference: PubChem BioAssay AID2060502 (Molecular Pharmacology Branch, DTP, NCI, 2025)

Test system: 885724-159-R-J1-PDC complex spheroid viability
Assay: Anticancer human tumor 885724-159-R-J1-PDC patient-derived pancreatic adenocarcinoma cell line growth inhibition [GQUAD]
Conditions: for IC50: curve of first compound; for viability, T/C: stronger effect = lower value
Description: DNA G-quadruplex Stabilizer Agents in Combinations in Complex Spheroids
A high-throughput screen of multi-cell type tumor spheroids was designed to identify active combinations of DNA G-quadruplex stabilizer agents and targeted small molecules. Complex spheroids include a stromal component modeled by human endothelial cells (HUVEC) and fibroblasts modeled by human mesenchymal stem cells (MSCs). The concentration ranges selected for each drug and investigational agent were based upon clinically achievable concentrations if the clinical Cmax of the agent was known.
Compounds. The drugs and investigational agents: pidnarulex (CX-5461; NSC782164), APTO-253 (NSC789042), BRACO-19 (NSC847499), peposertib (NSC802822), ceralasertib (NSC780249), elimusertib (NSC800525), camonsertib (NSC841442), AZD-1390 (NSC803789), olaparib (NSC753686), talazoparib (NSC767125), ART-558 (NSC835418), sotorasib (NSC818433), MRTX-1133 (NSC836407), SN-38 (NSC673596), topotecan (NSC609699), etoposide (NSC141540), doxorubicin (NSC123127), gemcitabine (NSC613327), 5-fluorouracil (NSC19893), paclitaxel (NSC125973), vemurafenib (NSC761431), panobinostat (NSC761190), R-306465 (JNJ-16241199; NSC773264), adavosertib (NSC754352), TP-3654 (NSC805149), carboplatin (NSC241240), KSQ-4279 (NSC840948), and staurosporine (NSC755774) were obtained from the National Cancer Institute (NCI) Developmental Therapeutics Program Chemical Repository (34). The FDA-approved anticancer drug set is available from the NCI Developmental Therapeutics Program. […] The stock solutions were prepared in dimethyl sulfoxide (DMSO, Sigma-Aldrich, St. Louis, MO, cat. D2650) at 800-fold the tested concentration and stored at -70 degrees C prior to their use. All drugs and investigational agents were tested over a range starting from a high concentration at or near the clinical Cmax and decreasing in half-log increments. If the clinical Cmax for an agent had not been determined, the highest concentration tested was 10 microM.
2.3 Cell Culture. All cells were maintained in an incubator at 37 degrees C and 5% CO2 with 95% humidity. The PDC lines were cultured according to standard operating procedures established by the NCI PDMR. All PDCs were thawed and cultured in Matrigel-coated flasks prepared with a working solution of 1X Ham's F-12 nutrient mix, without supplementation (Invitrogen, cat. 11765054), 100 U/mL penicillin-streptomycin (Invitrogen, cat. 15140122), and 2.5% Matrigel (Corning Inc., cat. 354248) for the first three passages. The 857933-349-R-J2-PDC line was cultured in 6C/Colon 1B media, which includes advanced DMEM/F-12 (Thermo Fisher Scientific, cat. 12634028), 10 mM HEPES (Thermo Fisher Scientific, cat. 15630080), 1X GlutaMAX supplement (Thermo Fisher Scientific, cat. 35050061), 0.1 mg/mL primocin (InvivoGen, cat. ant-pm-2), 10% defined fetal bovine serum, heat inactivated (HyClone Laboratories Inc., cat. SH30070.03HI), 50% L-WRN conditioned media (ATCC, cat. CRL-3276), 1.25 mM N-Acetyl-L-cysteine (Sigma-Aldrich, cat. A9165), 10 mM nicotinamide (Sigma-Aldrich, cat. N0636), 1X B-27 supplement (Thermo Fisher Scientific, cat. 17504044), 1X N-2 supplement (Thermo Fisher Scientific, cat. 17502048), 10 microM Y-27632 dihydrochloride (Tocris Bioscience, cat. 1254), and 50 ng/mL human EGF recombinant protein (Thermo Fisher Scientific, cat. PHG0311). The 485176-168-R4-J1-PDC line was cultured in Panc media, which includes all 6C/Colon 1B media components plus 100 ng/mL human FGF-10 (Thermo Fisher Scientific, cat. 100-26), 500 nM SB-431542 (Selleckchem, cat. S1067), and gastrin (Tocris, cat. 3006).
[…]

[1] = second compound 0.0316 µM, first compound 0.0316 µM
[2] = second compound 0.0316 µM, first compound 0.1 µM
[3] = second compound 0.0316 µM, first compound 0.316 µM
[4] = second compound 0.0316 µM, first compound 1 µM
[5] = second compound 0.0316 µM, first compound 3.16 µM
[6] = second compound 0.0316 µM, first compound 10 µM
[7] = second compound 0.1 µM, first compound 0.0316 µM
[8] = second compound 0.1 µM, first compound 0.1 µM
[9] = second compound 0.1 µM, first compound 0.316 µM
[10] = second compound 0.1 µM, first compound 1 µM
[11] = second compound 0.1 µM, first compound 3.16 µM
[12] = second compound 0.1 µM, first compound 10 µM
[13] = second compound 0.316 µM, first compound 0.0316 µM
[14] = second compound 0.316 µM, first compound 0.1 µM
[15] = second compound 0.316 µM, first compound 0.316 µM
[16] = second compound 0.316 µM, first compound 1 µM
[17] = second compound 0.316 µM, first compound 3.16 µM
[18] = second compound 0.316 µM, first compound 10 µM
[19] = second compound 1 µM, first compound 0.0316 µM
[20] = second compound 1 µM, first compound 0.1 µM
[21] = second compound 1 µM, first compound 0.316 µM
[22] = second compound 1 µM, first compound 1 µM
[23] = second compound 1 µM, first compound 3.16 µM
[24] = second compound 1 µM, first compound 10 µM
[25] = second compound 3.16 µM, first compound 0.0316 µM
[26] = second compound 3.16 µM, first compound 0.1 µM
[27] = second compound 3.16 µM, first compound 0.316 µM
[28] = second compound 3.16 µM, first compound 1 µM
[29] = second compound 3.16 µM, first compound 3.16 µM
[30] = second compound 3.16 µM, first compound 10 µM
[31] = second compound 10 µM, first compound 0.0316 µM
[32] = second compound 10 µM, first compound 0.1 µM
[33] = second compound 10 µM, first compound 0.316 µM
[34] = second compound 10 µM, first compound 1 µM
[35] = second compound 10 µM, first compound 3.16 µM
[36] = second compound 10 µM, first compound 10 µM
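Also: spheroids exposed to agents for seven days before readout.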
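For viability, T/C in this document: percent of vehicle control viability where 100% = DMSO wells.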

## CC1COCCN1c1cc(-c2ccnn2C)c2ccnc(-c3ccn[nH]3)c2n1 (centres undefined) + CN(C)c1ccc(Nc2c3ccc(NC(=O)CCN4CCCC4)cc3nc3cc(NC(=O)CCN4CCCC4)ccc23)cc1
Second compound 0.0316 µM
  IC50: 7.55 µM
Second compound 0.1 µM
  IC50: 8.81 µM
Second compound 0.316 µM
  IC50: > 10 µM
Second compound 1 µM
  IC50: 2.12 µM
Second compound 3.16 µM
  IC50: 1.68 µM
Second compound 10 µM
  IC50: 1.28 µM
[1]
  viability, T/C: 91.5%
[2]
  viability, T/C: 85.6%
[3]
  viability, T/C: 71.7%
[4]
  viability, T/C: 65%
[5]
  viability, T/C: 53.7%
[6]
  viability, T/C: 48.7%
[7]
  viability, T/C: 99.8%
[8]
  viability, T/C: 87%
[9]
  viability, T/C: 70.9%
[10]
  viability, T/C: 67%
[11]
  viability, T/C: 48.1%
[12]
  viability, T/C: 51.9%
[13]
  viability, T/C: 95.7%
[14]
  viability, T/C: 76.4%
[15]
  viability, T/C: 86.9%
[16]
  viability, T/C: 64.5%
[17]
  viability, T/C: 52.7%
[18]
  viability, T/C: 48.6%
[19]
  viability, T/C: 86.8%
[20]
  viability, T/C: 68.5%
[21]
  viability, T/C: 63.8%
[22]
  viability, T/C: 53.6%
[23]
  viability, T/C: 50%
[24]
  viability, T/C: 42.1%
[25]
  viability, T/C: 87.5%
[26]
  viability, T/C: 74.8%
[27]
  viability, T/C: 72.7%
[28]
  viability, T/C: 54.9%
[29]
  viability, T/C: 41.8%
[30]
  viability, T/C: 39.5%
[31]
  viability, T/C: 74.2%
[32]
  viability, T/C: 72.3%
[33]
  viability, T/C: 52.8%
[34]
  viability, T/C: 59.5%
[35]
  viability, T/C: 39%
[36]
  viability, T/C: 36.2%

## CC1COCCN1c1cc(C2(S(C)(=N)=O)CC2)nc(-c2ccnc3[nH]ccc23)n1 (centres undefined) + CN(C)c1ccc(Nc2c3ccc(NC(=O)CCN4CCCC4)cc3nc3cc(NC(=O)CCN4CCCC4)ccc23)cc1
Second compound 0.0316 µM
  IC50: > 10 µM
Second compound 0.1 µM
  IC50: > 10 µM
Second compound 0.316 µM
  IC50: > 10 µM
Second compound 1 µM
  IC50: > 10 µM
Second compound 3.16 µM
  IC50: > 10 µM
Second compound 10 µM
  IC50: > 10 µM
[1]
  viability, T/C: 102%
[2]
  viability, T/C: 106%
[3]
  viability, T/C: 98.1%
[4]
  viability, T/C: 98.6%
[5]
  viability, T/C: 69.1%
[6]
  viability, T/C: 79.6%
[7]
  viability, T/C: 87.7%
[8]
  viability, T/C: 93.7%
[9]
  viability, T/C: 82%
[10]
  viability, T/C: 87%
[11]
  viability, T/C: 79.3%
[12]
  viability, T/C: 75.3%
[13]
  viability, T/C: 84.5%
[14]
  viability, T/C: 89.6%
[15]
  viability, T/C: 92.3%
[16]
  viability, T/C: 75%
[17]
  viability, T/C: 80%
[18]
  viability, T/C: 63.9%
[19]
  viability, T/C: 89.4%
[20]
  viability, T/C: 74.3%
[21]
  viability, T/C: 76.3%
[22]
  viability, T/C: 73.2%
[23]
  viability, T/C: 76.8%
[24]
  viability, T/C: 53%
[25]
  viability, T/C: 76.3%
[26]
  viability, T/C: 65.1%
[27]
  viability, T/C: 65.3%
[28]
  viability, T/C: 64%
[29]
  viability, T/C: 73%
[30]
  viability, T/C: 51.6%
[31]
  viability, T/C: 71.9%
[32]
  viability, T/C: 81.8%
[33]
  viability, T/C: 85.4%
[34]
  viability, T/C: 67%
[35]
  viability, T/C: 71.9%
[36]
  viability, T/C: 63%
